This note sets out measurements from patent US12144824B2, “Method for enhancing embryo implantation” (The Flinders University of South Australia, priority 2018, dated 2024).

The structures appear in SMILES notation.

Data set [1] deals with LIF production, human Ishikawa endometrial adenocarcinoma cell line. The data set is described as follows: LIF production by Ishikawa cells exposed to copper or zinc chloride solutions (multiplex immunoassay).
Experimental: (§1) The human Ishikawa endometrial adenocarcinoma cell line (Sigma-Aldrich; St Louis, MO, United States of America) was used to model the endometrium's response to copper and zinc metal ions (Cu^2+ and Zn^2+). Cells were grown in T75 flasks (Nalge Nunc International, Rochester, NY, United States of America) in Ishikawa medium, consisting of αMEM (Sigma-Aldrich) supplemented with 5% foetal bovine serum (Invitrogen Corp, Carlsbad, CA, United States of America), 2 mM glutamine (Sigma-Aldrich) and 1% non-essential amino acids (Sigma-Aldrich) without antibiotics at 37° C. under a gas atmosphere of 5% CO2 in air. Medium was refreshed every 48 hours. Cells were subcultured using 0.25% trypsin/EDTA (Invitrogen). For metal ion exposure experiments, cells were seeded onto 2-well chamber slides (Ibidi, Martinsried, Germany). After the endometrial cells had attached and reached 80-90% confluence they were then exposed to copper and zinc metal ions using two approaches (salt solution or metal implant) as described below.
(§2) Copper or zinc chloride (Sigma-Aldrich) was dissolved in Ishikawa medium to produce salt solutions at various concentrations in the range of 0.2 μM and 200 μM, before being applied to Ishikawa cells seeded into 2-well chamber slides for a period of 8 hours. Following the 8 hours exposure, culture media were removed, centrifuged at 1000 g for 10 minutes at 4° C. to pellet any cellular debris, and then the supernatants were stored in Eppendorf tubes at −80° C. Subsequently, the supernatants were assayed for both LIF and VEGF content using a multiplex immunoassay system (elisakit.com, Scoresby, VIC, Australia).
Data set [2] shares this test system.
Experimental: as §1, §2
Data set [3] relates to VEGF production, human Ishikawa endometrial adenocarcinoma cell line. The data set can be described thus: VEGF production by Ishikawa cells exposed to copper or zinc chloride solutions (multiplex immunoassay). In kind it is cell-based. How it is done: Medium was refreshed every 48 hours. Cells were subcultured using 0.25% trypsin/EDTA (Invitrogen).
A further data set concerns murine day 3 embryos. The data set is described as follows: Mouse embryo development and blastocyst outgrowth assay on fibronectin-coated plates. The note with it: short term exposure. The class given is cell-based. The procedure:
Ishikawa cells were seeded onto 2-well chamber slides in Ishikawa medium until they reached 80-90% confluence. Then, 5 minutes prior to exposure to metal implants, the medium was changed to G2 embryo culture medium, and the Ishikawa cells exposed to copper, zinc or copper-zinc bimetal implants for either 2 or 5 minutes duration (or remained unexposed (control)), and the resulting G2 culture media collected 8 hours later.
To determine whether metal ions were capable of enhancing embryo implantation, post-compaction mouse embryos were exposed to the “conditioned media” prior to undergoing outgrowth assays. In particular, pronucleate oocytes were collected from superovulated female F1 mice ˜21-22 hours post-hCG. Following cumulus cell removal, oocytes were cultured in 20 μl drops (10 embryos/drop) of G1 medium under paraffin oil (Vitrolife) at 37° C. in 6% CO2, 5% O2 and 89% N2. After 48 hours, compacting and morulae stage embryos were randomly transferred to culture in either (i) control G2 medium (Vitrolife) that had not been exposed to Ishikawa cells; (ii) individual culture in 2 μl of control, Ishikawa exposed G2; or (iii) individual culture in 2 μl drops of 2 minute copper-zinc bimetal implant exposed G2 medium. After 48 hours, the capacity of blastocysts to undergo outgrowth was assessed in the following manner. […] All images were collected and analysed at matching magnification.

On to `[Cl][Cu][Cl]` [CuCl2, copper chloride], for which the “increase in endometrial LIF production” value in data set [1] (CuCl2 200 μM) was found to be 4 fold. Moreover, the “LIF production increase above baseline” value in data set [1] (CuCl2 200 μM, 8 hours) came to 420%. The “lowest amount confirmed to elicit an increase in endometrial LIF” value in data set [1] (Example 1) was 20 µM. In addition, the “concentration producing a significant increase in LIF production” value in data set [1] (salt solution in Ishikawa medium, 8 hours exposure) is “exceeding 2 μM”. Also, the “toxicity in relation to LIF production” value in data set [2] is “No toxicity”. Moreover, in data set [3] (8 hours exposure), the “concentration of peak VEGF production” value was 100 µM and the “concentration producing a significant increase in VEGF production” value was “above 20 μM”. The “lowest amount confirmed to elicit an increase in endometrial VEGF” value in data set [3] (Example 1) was determined as 20 µM. Besides, the “concentration exceeding which a relative decline in endometrial VEGF production was observed” value in data set [3] (in vitro) is listed as “exceeding 100 μM”.

With `[Cl-].[Cl-].[Zn+2]` [ZnCl2, zinc chloride], in data set [1] (8 hours exposure), the “dose above which toxicity, with a reduction in LIF production, was observed” value is “exceeding 150 μM”. Moreover, in data set [3] (8 hours exposure), the “concentration from which VEGF production appeared reduced” value was no less than 150 µM and the “increase in VEGF compared to controls” value is listed as “no significant increase”.

In the case of `[Zn+2]` [zinc ions], the “toxicity to pre-implantation embryo development” value in the data set with murine day 3 embryos is given as “not significant”.

In the case of `[Cu+2]` [copper ions], in the data set with murine day 3 embryos, the “toxicity to pre-implantation embryo development” value is “not significant”.
